Assay results as given in article PMC6968587, “Discovery of 3-alkyl-5-aryl-1-pyrimidyl-1H-pyrazole derivatives as a novel selective inhibitor scaffold of JNK3” (Journal of Enzyme Inhibition and Medicinal Chemistry, 2019).
Like-named read-outs stand apart in the source and are kept apart here.

How the values were obtained:
Type in all cases: biochemical
JNK3 [1] = target: T1, JNK3 (Homo sapiens, UniProt P53779); assay: Kinase panel screening, single dose 10 μM, in duplicate: JNK3; settings: read-out: inhibitory activity on JNK3
Description: (§1) Next, we used kinase panel screening in duplicate for compound 7a over 38 different kinases at a single-dose concentration of 10 μM (Table 2). The compound was indeed a selective JNK3 inhibitor with an excellent selectivity profile.

JNK3 [2] = target: T1, JNK3; assay: JNK3 enzymatic inhibitory activity (IC50)
Source text: In an effort to reduce the molecular weight, the piperidine ring was diversified into pyrrolidine and azetidine with less carbon atoms.

GSK3β = target: T2, GSK3β (Homo sapiens, UniProt P49841); assay: GSK3β enzymatic activity (IC50), Reaction Biology Kinase HotSpot
T2 construct: purchased Reaction Biology Corp. (Kinase HotSpot service)

[3] = tested on: 38 selected protein kinases; assay: Kinase panel screening, single dose 10 μM, in duplicate: other kinases of the 38-kinase panel
Description: as §1

[4] = enzymatic activity, Table 1, read-out: JNK3 IC50

T1 sequence (P53779 whole entry): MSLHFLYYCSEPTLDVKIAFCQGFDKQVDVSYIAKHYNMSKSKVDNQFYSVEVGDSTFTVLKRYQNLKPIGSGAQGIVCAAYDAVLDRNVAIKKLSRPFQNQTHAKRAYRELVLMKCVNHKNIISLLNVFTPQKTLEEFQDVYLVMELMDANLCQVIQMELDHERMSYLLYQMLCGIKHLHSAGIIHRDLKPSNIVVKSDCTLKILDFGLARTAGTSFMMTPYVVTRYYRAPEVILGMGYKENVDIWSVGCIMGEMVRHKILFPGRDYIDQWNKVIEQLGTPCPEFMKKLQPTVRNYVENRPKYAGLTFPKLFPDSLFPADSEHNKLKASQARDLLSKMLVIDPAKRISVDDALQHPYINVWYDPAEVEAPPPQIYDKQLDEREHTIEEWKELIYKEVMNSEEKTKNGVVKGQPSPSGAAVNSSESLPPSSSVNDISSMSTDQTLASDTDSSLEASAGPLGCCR
T2 sequence (P49841 whole entry): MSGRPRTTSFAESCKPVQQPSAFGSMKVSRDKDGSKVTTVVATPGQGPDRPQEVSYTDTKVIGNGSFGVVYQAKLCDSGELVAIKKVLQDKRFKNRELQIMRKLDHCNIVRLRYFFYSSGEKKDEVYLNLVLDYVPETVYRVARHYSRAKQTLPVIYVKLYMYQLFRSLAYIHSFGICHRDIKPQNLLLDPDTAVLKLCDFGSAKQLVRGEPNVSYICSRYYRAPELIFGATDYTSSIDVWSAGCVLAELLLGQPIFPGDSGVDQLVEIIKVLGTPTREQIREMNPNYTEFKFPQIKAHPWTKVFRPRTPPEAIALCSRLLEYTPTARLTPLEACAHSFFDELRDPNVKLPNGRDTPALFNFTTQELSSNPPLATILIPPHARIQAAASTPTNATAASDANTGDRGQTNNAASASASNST

SMILES | IC50 (JNK3 [2]; [4]) [µM] | also measured
N#CCc1cc(-c2ccc(Cl)c(Cl)c2)n(-c2ccnc(N[C@H]3CCCN(C(=O)C4CC4)C3)n2)n1 [7a] | 0.635 | inhibition at 10 µM (JNK3 [1]): 90%; IC50 (GSK3β; Table 2, Kinase HotSpot service, read-out: Compound IC50* on GSK3β): 3.96 µM; selectivity for JNK3 over GSK3β in terms of IC50 (GSK3β; ratio of IC50 GSK3β / JNK3): six fold selective; inhibition activity for most other kinases except GSK3β [3]: less than 20%
N#CCc1cc(-c2ccc3ccccc3c2)n(-c2ccnc(N[C@H]3CCCN(C(=O)C4CC4)C3)n2)n1 [7b] | 0.824 | –
N#CCc1cc(-c2ccc3c(c2)OCO3)n(-c2ccnc(N[C@H]3CCCN(C(=O)C4CC4)C3)n2)n1 [7c] | 4.6 | –
N#CCc1cc(-c2ccc3c(c2)CCO3)n(-c2ccnc(N[C@H]3CCCN(C(=O)C4CC4)C3)n2)n1 [7d] | 7.9 | –
N#CCc1cc(-c2ccc([N+](=O)[O-])cc2)n(-c2ccnc(N[C@H]3CCCN(C(=O)C4CC4)C3)n2)n1 [7f] | > 10 | –
N#CCc1cc(-c2ccc(Cl)c(Cl)c2)n(-c2ccnc(N[C@@H]3CCN(C(=O)C4CC4)C3)n2)n1 [8a, (R)-2-(1-(2-((1-(cyclopropanecarbonyl)pyrrolidin-3-yl)amino)pyrimidin-4-yl)-5-(3,4-dichlorophenyl)-1H-pyrazol-3-yl)acetonitrile] | – | IC50 (JNK3 [2]): 0.227 µM
N#CCc1cc(-c2ccc3ccccc3c2)n(-c2ccnc(N[C@@H]3CCN(C(=O)C4CC4)C3)n2)n1 [8b] | 0.361 | –
N#CCc1cc(-c2ccc3c(c2)OCO3)n(-c2ccnc(N[C@@H]3CCN(C(=O)C4CC4)C3)n2)n1 [8c] | 2.18 | –
N#CCc1cc(-c2ccc3c(c2)CCO3)n(-c2ccnc(N[C@@H]3CCN(C(=O)C4CC4)C3)n2)n1 [8d] | 4.42 | –
N#CCc1cc(-c2cccc([N+](=O)[O-])c2)n(-c2ccnc(N[C@@H]3CCN(C(=O)C4CC4)C3)n2)n1 [8e] | > 10 | –
N#CCc1cc(-c2ccc([N+](=O)[O-])cc2)n(-c2ccnc(N[C@@H]3CCN(C(=O)C4CC4)C3)n2)n1 [8f] | 7.89 | –
N#CCc1cc(-c2ccc(Cl)c(Cl)c2)n(-c2ccnc(N[C@H]3CCN(C(=O)C4CC4)C3)n2)n1 [9a] | – | IC50 (JNK3 [2]): 3.11 µM
N#CCc1cc(-c2ccc3ccccc3c2)n(-c2ccnc(N[C@H]3CCN(C(=O)C4CC4)C3)n2)n1 [9b] | 2.9 | –
N#CCc1cc(-c2ccc3c(c2)OCO3)n(-c2ccnc(N[C@H]3CCN(C(=O)C4CC4)C3)n2)n1 [9c] | 8.57 | –
N#CCc1cc(-c2ccc3c(c2)CCO3)n(-c2ccnc(N[C@H]3CCN(C(=O)C4CC4)C3)n2)n1 [9d] | 3.25 | –
N#CCc1cc(-c2ccc(Cl)c(Cl)c2)n(-c2ccnc(NC3CN(C(=O)C4CC4)C3)n2)n1 [10a] | 2.84 | –
N#CCc1cc(-c2ccc3ccccc3c2)n(-c2ccnc(NC3CN(C(=O)C4CC4)C3)n2)n1 [10b] | 2.07 | –
N#CCc1cc(-c2ccc3c(c2)OCO3)n(-c2ccnc(NC3CN(C(=O)C4CC4)C3)n2)n1 [10c] | 5.58 | –
NC(=O)Cc1cc(-c2ccc(Cl)c(Cl)c2)n(-c2ccnc(N[C@H]3CCCN(C(=O)C4CC4)C3)n2)n1 [11a] | 1.46 | –
COC(=O)Cc1cc(-c2ccc(Cl)c(Cl)c2)n(-c2ccnc(N[C@H]3CCCN(C(=O)C4CC4)C3)n2)n1 [12a] | 0.903 | –
